Reference: patent US20060051436A1, “Composition for controlling excessive calorie intake-induced disorder, food product for controlling excessive calorie intake-induced disorder, skin preparation for external use for controlling excessive calorie intake-induced disorder, and controlling agent for excessive calorie intake-induced …” (Towa Corporation Kabushiki Kaisha, priority 2004, published 2006)
Marks after values point to notes of the source that are not given here.

What was measured:
[1] = system: Otsuka Long-Evans Tokushima Fatty (OLETF) rats; experiment: Liver weight ratio and liver lipid contents in OLETF rats; format: in vivo, rat; conditions: end of six-week experiment, M±SE
Procedure: Immediately after the extraction of all the blood, the liver was quickly removed from all the rats in each group, and the wet weight of each liver was measured. The liver weight ratio of each rat is shown in terms of the liver weight per unit of body weight (100 g) at the time of removal. Extraction of lipid from each liver was performed in accordance with the method described in “A simple method for the isolation and purification of total lipids from animal tissues” (Folch and two other members, Journal of Biological Chemistry, vol. 226, p 497-509, 1957). A part of the lower layer of the liquid liver extract (the chloroform-containing layer) was separated, and the chloroform contained therein was evaporated under nitrogen gas current. The liquid with the chloroform removed was used as a sample for measuring liver lipid contents. The cholesterol, phospholipid, and triglyceride contents in the liver were enzymatically measured with commercial kits (Cholesterol E-Test Wako, Phospholipid C-Test Wako, and Triglyceride E-Test Wako; products of Wako Pure Chemical Industries, Ltd.), respectively.

[2] = Body weight and food intake of OLETF rats; format: in vivo, rat; conditions: M±SE
Source text: The rats that were the subjects of the experiment were divided into three groups: a Control group to be fed a control diet, a Hercampuri group to be fed a Hercampuri-enriched diet, and an Acarbose group to be fed an Acarbose-enriched diet. […] This control diet was purified animal feed containing casein as the source of protein. The Hercampuri-enriched diet fed to the rats in the Hercampuri group was produced by adding Hercampuri extract powder at a mixing ratio of 2% to the control diet. The Acarbose-enriched diet fed to the rats in the Acarbose group was produced by adding Acarbose (product of Bayer AG) at a mixing ratio of 0.2% to the control diet. For each experimental diet, the amount of the added subject ingredient was compensated for by adjusting the amount of corn starch. Male OLETF rats and LETO rats delivered from Tokushima Research Institute of Otsuka Pharmaceutical Co., Ltd. were used as the subject animals. Each one of these OLETF rats and LETO rats was born during the period of June 10th to June 13th in 2002. […] The rats had free access to feed (CE-2: product of Clea Japan, Inc.) and drinking water (tap water). […] During the experiment, the body weights and the amounts of food intake were measured every other day. […]

[3] = system: Otsuka Long-Evans Tokushima Fatty (OLETF) rats; experiment: Serum and lipoprotein fraction cholesterol, phospholipid, triglyceride in OLETF rats; format: in vivo, rat; conditions: end of six-week experiment, M±SE
Procedure: Six week after the initiation of the experiment, without prior abstinence from feed, each rat was anesthetized by administering approximately 50 mg/kg of pentobarbital sodium (product of Dainippon Pharmaceutical Co., Ltd.) into the abdominal cavity to remove all of its blood via the abdominal aorta with an injection syringe. This operation was performed during the period from 10:00 am to 12:00 am. The blood obtained by the operation was set aside for 1 hour at room temperature and subsequently at 4° C. for a period in the range of 1 to 2 hours. Thereafter, blood serum was separated by means of centrifugation at 2500 rpm at 4° C. for 10 minutes. Fractions of various lipoproteins were separated from the blood serum obtained at the time of whole blood extraction. […] Therefore, it is not possible with step-wise density gradient ultracentrifugation employed for this experiment to exclusively separate native LDL, and the LDL fraction separated in this stage contains HDL1 that existed together with LDL. The cholesterol, phospholipid, and triglyceride contents in the serum and each lipoprotein fraction were enzymatically measured with commercial kits (Cholesterol E-Test Wako, Phospholipid C-Test Wako, and Triglyceride E-Test Wako; products of Wako Pure Chemical Industries, Ltd.), respectively.

[4] = system: cholesterol 7α-hydroxylase; experiment: 7α-hydroxylase activity in liver microsome fraction of OLETF rats; format: in vivo, rat; conditions: M±SE
Procedure: Purified liver microsome fraction was produced according to a normal method, and the cholesterol in the liver microsome fraction was used as the substrate. The activity of cholesterol 7α-hydroxylase was determined by HPLC in accordance with the method described in “An improved method for assay of cholesterol 7α-hydroxylase activity” by Tadashi Ogishima and one other member (USA, Analytical Biochemistry, vol. 158, p 228-232, 1986). The results of measurement of 7α-hydroxylase activity are shown in terms of the amount of HCO (7α-hydroxy-4-cholesten-3-on) generated per 1 mg of protein content in one minute in the microsome fraction (pmol/min/mg of microsome protein).

[5] = system: Otsuka Long-Evans Tokushima Fatty (OLETF) rats; experiment: Serum glucose, free fatty acids and insulin in OLETF rats; format: in vivo, rat; conditions: end of six-week experiment, M±SE
Procedure: Six week after the initiation of the experiment, without prior abstinence from feed, each rat was anesthetized by administering approximately 50 mg/kg of pentobarbital sodium (product of Dainippon Pharmaceutical Co., Ltd.) into the abdominal cavity to remove all of its blood via the abdominal aorta with an injection syringe. This operation was performed during the period from 10:00 am to 12:00 am. The blood obtained by the operation was set aside for 1 hour at room temperature and subsequently at 4° C. for a period in the range of 1 to 2 hours. Thereafter, blood serum was separated by means of centrifugation at 2500 rpm at 4° C. for 10 minutes. Furthermore, the glucose and free fatty acid content in he serum were enzymatically measured with commercial kits (Glucose CII-Test Wako and NEFA C-Test Wako; products of Wako Pure Chemical Industries, Ltd.), respectively. The serum insulin content was determined in accordance with the Sandwich ELISA (enzyme-linked immunosorbent assay) method using a Rat insulin ELISA kit (product of Shibayagi Co., Ltd.). Therefore, the insulin content is shown in terms of Immuno-reactive insulin (IRI; pg/ml).

[6] = system: Otsuka Long-Evans Tokushima Fatty (OLETF) rats; experiment: Serum apolipoprotein contents in OLETF rats; format: in vivo, rat; conditions: M±SE
Procedure: The respective contents of various apolipoproteins, i.e. apoA-I, apoB, and apoE, as well as the respective apoE contents in the LDL and HDL fractions, were determined by the rocket immunoelectrophoresis method described in “Age-related changes in serum concentrations of apolipoprotein A-I, E, and A-IV in SHRSP” by Hiroshi Ogawa and 4 other members (G.B., Journal of Hypertension, vol. 4, p 429-453, 1986). The aforementioned immunoelectrophoresis method is in accordance with the Laurell method and adjustment of a part of the method presented by C. B. Laurell in “Quantitative estimation of proteins by electrophoresis in agarose-gel containing antibodies” (USA, Analytical Biochemistry, vol. 15, p 42-52, 1966). The antibodies used for this measurement were specific antibodies obtained from rabbits by using antigens that were various apolipoproteins separated and refined from rat serum. Furthermore, apoB/apoA-I was calculated from the results of measurement of apoA-I and apoB.

[7] = system: streptozotocin (STZ)-induced diabetic rats; conditions: Planta Medica 1994, 1995; cited from earlier work

Row | SMILES | Liver Cholesterol [1] | Liver Phospholipid [1] | Liver Triglyceride [1] | Liver weight [1] | Food intake ([2]; average over six weeks) | Body weight ([2]; end of six-week experiment) | Serum Cholesterol [3] | Serum Phospholipid [3] | Serum Triglyceride [3] | 7α-hydroxylase [4] | Serum FFA [5] | Serum Glucose [5] | Serum IRI (immuno-reactive insulin) [5] | ApoB/apoA-I (×100) ([6]; calculated from apoA-I and apoB) | Serum apoA-I ([6]; end of six-week experiment) | Serum apoB ([6]; end of six-week experiment) | Serum apoE ([6]; end of six-week experiment) | Blood sugar levels [7]
1 | C[C@H]1O[C@H](O[C@H]2[C@H](O)[C@@H](O)[C@@H](O[C@H]3[C@H](O)[C@@H](O)C(O)O[C@@H]3CO)O[C@@H]2CO)[C@H](O)[C@@H](O)[C@@H]1N[C@H]1C=C(CO)[C@@H](O)[C@H](O)[C@H]1O (stereo partly drawn) [Acarbose] | 5.39 mg/wet g | 32.9 mg/wet g | 75.4 mg/wet g | 3.40 g/100 g B.W. | 12.9 ± 0.9^a g/rat/day | 639 ± 14^b g | 150 ± 11^b mg/dL | 178 ± 10^b mg/dL | 55.6 ± 1.7^c mg/dL | 34.5 nmol/min/mg protein | 751 ± 38^c μEq/L | 193 ± 12^c mg/dL | 665 ± 231^b pg/mL | 3.15 ± 0.06^c | 126 ± 4^a mg/dL | 3.95 ± 0.14^b mg/dL | 55.5 ± 2.7^b mg/dL | –
2 | COc1cc(O)c2c(=O)c3c(O)ccc(O)c3oc2c1 [Bellidifolin] | – | – | – | – | – | – | – | – | – | – | – | – | – | – | – | – | – | has a function of reducing blood sugar levels
